According to patent US4748161A, “Triterpenyl esters of organic acids and hypolipidemic agents composed of them” (Amano Pharmaceutical Co., Ltd., priority 1984, dated 1988):

Test system: serum lipids and serum lipid hydroperoxide
Assay: Pharmacological test method A for anti-hyperlipidemic activity (serum lipids, 2 weeks feeding)
Type: in vivo, male Wistar strain rats
Conditions: for AI [(TC - HDL-C)/(HDL-C)] / HDL-C in serum / LPO in serum / PL in serum / TC in serum / TG in serum: 1% in hyperlipidemic diet, 2 weeks; for AI % of diff. / AI Diff. / HDL-C % of diff. / HDL-C Diff. / LPO % of diff. / LPO Diff. / PL % of diff. / PL Diff. / TC % of diff. / TC Diff. / TG % of diff. / TG Diff.: versus control group
Protocol: Male Wistar strain rats (100±lg, each 10 rats were formed into a group) were used as test animals. Diet for the control group was prepared by thorough mixing of 20% casein, 62.5% glucose, 10% hydrogenated coconut oil, 2% agar powder, 4% vitamin-containing salt mixture, 1% cholesterol, and 0.5% cholic acid (this composition is described by Fukushima et al, in "Yakugaku Zassi", 89, No. 6, pp. 857-862 (1962)). Diet for the test groups was prepared by good mixing of 1% each of cycloartenol, 24-methylenecycloartanol, and cyclobranol with the control group's diet. Each rat was kept in a cage at a constant temperature of 23±1° C. and a constant R.H. of 55±5% for 2 weeks, during which 10 g/day of the prescribed was given. Finally the rats were fasted from food except water for 16 hours (from 4 p.m. of the 14th test day to 8 a.m. of the 15th test day), and under anesthesia with pentbarbital sodium (tradename: Nembutal), blood was taken from each rat through the descending abdominal arota. Then, TC, HDL-C, TG, PL, and LPO in the serum were measured in the manner that will be described below.
A TC kit-K (supplied by Nippon Shoji Kaisha, Ltd.) was used. The principle of this determination is as follows: The ester of cholesterol in the serum is hydrolyzed with cholesterol-ester hydrolase into free cholesterol and fatty acids. All the free cholesterol is oxidized with cholesterol oxydase to form Δ^4 -cholestenone and hydrogen peroxide. Phenol and 4-aminoantipyrin are oxidatively condensed together by the formed hydrogen peroxide and peroxydase. The produced red quinone coloring matter is measured by colorimetry for absorbance at 500 nm using a spectrophotometer, thereby determining the TC:
The color-developing liquid (3.0 ml) is well mixed with the sample serum (0.02 ml). The mixture once heated at 37° C. for 15 minutes, is measured for absorbance at 500 nm with a spectrophotometer. The found absorbance is denoted by EA. On the other hand, the color-developing liquid (3.0 ml) is well mixed with the standard solution. The mixture is treated and measured for absorbance at 500 nm in the same manner as the above. This found absorbance is denoted by ES. Both EA and ES are determined with reference to the value of the blank test conducted using the color-developing liquid (3.0 ml) alone. [formula]
An HDL-C kit-N (supplied by Nippon Shoji Kaisha, Ltd.) was used. […] (VLDL) and lo density lipoprotein (LDL) in the serum is precipitated by the action of heparin. The precipitate is separated by centrifugation. High density lipoprotein (HDL) is dissolved in the separated supernatant. Esters of cholesterol in this fraction is hydrolyzed with cholesterol-ester hydrolase into free cholesterol and fatty acids. All the free cholesterol is oxidized with cholesterol oxydase to form Δ^4 -cholestenone and hydrogen peroxide. Phenol and 4-aminoantipyrine are oxidatively condensed together by the formed hydrogen peroxide and peroxydase. The produced red quinone coloring matter is measured by colorimetry for absorbance at 500 nm using a spectrophotometer, thereby determining the HDL-C.
A PL kit-K (supplied by Nippon Shoji Kaisha, Ltd.) was used for the determination. Lecithin, sphingomyelin, and lysolecithin are decomposed by phospholipase D into choline and phosphatidic acid, N-acylsphingosyl phosphate, or lysophosphatidic acid, respectively. The resulting choline is quantitatively decomposed by choline oxydase into hydrogen peroxide and betaine. With this hydrogen peroxide, and aid of peroxydase, phenol and 4-aminoantipyrin are condensed into red quinone pigment, then the absorbance at 500 nm of which is measured with a spectrophotometer, thereby determining the PL.
Serum TG level was determined by means of a triglyceride test kit (supplied by Wako Pure Chemical Industries, Ltd.) in which acetylacetone is used for a reagent, in the following manner: Serum proteins are precipitated, when isopropyl alcohol and the sample serum are mixed. […]

SMILES	AI [(TC - HDL-C)/(HDL-C)]	HDL-C in serum	LPO in serum	PL in serum	TC in serum	TG in serum	AI % of diff.	AI Diff.	HDL-C % of diff.	HDL-C Diff.	LPO % of diff.	LPO Diff.	PL % of diff.	PL Diff.	TC % of diff.	TC Diff.	TG % of diff.	TG Diff.
CC(C)=CCCC(C)C1CCC2(C)C3CCC4C(C)(C)C(OC(=O)C=Cc5ccc([N+](=O)[O-])cc5)CCC45CC35CCC12C (centres unmarked) [Example 101, cycloartenyl ester of p-nitro cinnamic acid]	3.668	46.4 mg/dL	2.12 nmol/mL	150.7 mg/dL	216.6 mg/dL	28.2 mg/dL	-53.2%	-4.172	+25.7%	+9.5 mg/dl	-24.3%	-0.68 nmol/mL	-9.0%	-14.9 mg/dL	-33.6%	-109.6 mg/dL	-17.1%	-5.8 mg/dL
CC(=O)Nc1ccc(C(=O)OC2CCC34CC35CCC3(C)C(C(C)CCC=C(C)C)CCC3(C)C5CCC4C2(C)C)cc1 (centres unmarked) [Example 20, cycloartenyl-p-acetamidobenzoate]	0.867	90.4 mg/dL	2.02 nmol/mL	143.3 mg/dL	168.8 mg/dL	35.2 mg/dL	-29.1%	-0.355	+4.5%	+3.9 mg/dl	-9.7%	-0.22 nmol/mL	-17.0%	-29.3 mg/dL	-12.2%	-23.4 mg/dL	-3.0%	-1.1 mg/dL
CC(C)=C(C)CCC(C)C1CCC2(C)C3CCC4C(C)(C)C(OC(=O)c5ccc(N)cc5)CCC45CC35CCC12C (centres unmarked) [Example 43, cyclobranyl-p-aminobenzoate]	0.713	91.9 mg/dL	1.54 nmol/mL	146.0 mg/dL	157.4 mg/dL	33.3 mg/dL	-41.7%	-0.509	+6.2%	+5.4 mg/dl	-31.3%	-0.70 nmol/mL	-15.4%	–	-18.1%	-34.8 mg/dL	-8.2%	-3.0 mg/dL
CCOc1cc(C(=O)OC2CCC34CC35CCC3(C)C(C(C)CCC=C(C)C)CCC3(C)C5CCC4C2(C)C)ccc1O (centres unmarked) [Example 60, cycloartenyl-3-ethoxy-4-hydroxybenzoate]	0.609	102.5 mg/dL	1.98 nmol/mL	161.4 mg/dL	164.9 mg/dL	32.8 mg/dL	-39.2%	-0.393	+6.5%	+6.3 mg/dl	-15.0%	-0.35 nmol/mL	-10.8%	-19.5 mg/dL	14.4%	-27.7 mg/dL	-1.2%	-0.4 mg/dL
CC(C)=C(C)CCC(C)C1CCC2(C)C3CCC4C(C)(C)C(OC(=O)c5ccc(O)cc5)CCC45CC35CCC12C (centres unmarked) [Example 58, cyclobranyl-p-hydroxybenzoate]	1.318	62.0 mg/dL	1.82 nmol/mL	121.3 mg/dL	143.7 mg/dL	26.8 mg/dL	-25.4%	-0.449	+3.0%	+1.8 mg/dl	-28.1%	-0.71 nmol/mL	-11.3%	-15.4 mg/dL	-13.7%	-22.9 mg/dL	-1.5%	-0.4 mg/dL
C=C(CCC(C)C1CCC2(C)C3CCC4C(C)(C)C(OC(=O)c5cccc(N)c5)CCC45CC35CCC12C)C(C)C (centres unmarked) [Example 100, 24-Methylenecyloartanyl ester of m-aminobenzoic acid]	0.766	90.1 mg/dL	1.68 nmol/mL	155.6 mg/dL	159.1 mg/dL	34.3 mg/dL	-37.3%	-0.456	+4.2%	+3.6 mg/dl	-25.2%	-0.56 nmol/mL	-10.2%	-17.6 mg/dL	-17.2%	-33.1 mg/dL	-5.5%	-2.0 mg/dL
CC(C)=CCCC(C)C1CCC2(C)C3CCC4C(C)(C)C(OC(=O)c5ccc(N)cc5)CCC45CC35CCC12C (centres unmarked) [Example 19, cycloartenyl-p-aminobenzoate]	0.699	91.9 mg/dL	1.63 nmol/mL	153.6 mg/dL	156.1 mg/dL	31.6 mg/dL	-42.8%	-0.523	+6.2%	+5.4 mg/dl	-27.2%	-0.61 nmol/mL	-11.0%	-19.0 mg/dL	-18.8%	-36.1 mg/dL	-12.9%	-4.7 mg/dL
CCOc1cc(C(=O)OC2CCC34CC35CCC3(C)C(C(C)CCC(C)=C(C)C)CCC3(C)C5CCC4C2(C)C)ccc1O (centres unmarked) [Example 62, cyclobranyl-3-ethoxy-4-hydroxybenzoate]	0.474	108.2 mg/dL	1.94 nmol/mL	156.5 mg/dL	159.5 mg/dL	32.0 mg/dL	-52.7%	-0.528	+12.5%	+12.0 mg/dl	-16.8%	-0.39 nmol/mL	-13.5%	-24.4 mg/dL	17.2%	-33.1 mg/dL	-3.6%	-1.2 mg/dL
CCCOc1cc(C=CC(=O)OC2CCC34CC35CCC3(C)C(C(C)CCC=C(C)C)CCC3(C)C5CCC4C2(C)C)ccc1O (centres unmarked) [Example 74, cycloartenyl-4-hydroxy-3-propoxycinnamate]	0.787	92.4 mg/dL	2.09 nmol/mL	162.1 mg/dL	165.1 mg/dL	33.1 mg/dL	-21.5%	-0.215	-4.0%	-3.8 mg/dL	-10.4%	-0.24 nmol/mL	-10.4%	-18.8 mg/dL	14.3%	-27.5 mg/dL	-0.3%	-0.1 mg/dL
